Laboratory results as given in patent US20260130395A1, “Water Dispersible Botanical Compositions” (Aquila Black Limited, priority 2021, published 2026).

How the values were obtained:
[1] = Stability of cannabinoid entourage and Vitamin E components of the powder concentrate by LCMSMS; type: physicochemical; settings: powder stored at 21-25° C.
Protocol: At each time period, 0.05 g of powder was dissolved in 10 ml-15 of ethanol, diluted to fall within the analytical range, and injected into the LCMSMS for analysis.

[2] = Stability of cannabinoid compounds and Vitamin E components in Beverage 1 (AB White) by LCMSMS; type: physicochemical; settings: AB White stored at 8° C.

## CCCc1cc(O)c2c(c1)OC(C)(C)[C@@H]1CCC(C)=C[C@@H]21 [THCV, delta-9-tetrahydrocannabivarin]
[1]; 0 days
  Stability of Plant-Derived Cannabinoid Compounds in Powder Concentrate: 0.680 mg/g powder
[1]; 1 days
  Stability of Plant-Derived Cannabinoid Compounds in Powder Concentrate: 0.685 mg/g powder
[1]; 2 days
  Stability of Plant-Derived Cannabinoid Compounds in Powder Concentrate: 0.699 mg/g powder
[1]; 3 days
  Stability of Plant-Derived Cannabinoid Compounds in Powder Concentrate: 0.698 mg/g powder
[1]; 5 days
  Stability of Plant-Derived Cannabinoid Compounds in Powder Concentrate: 0.676 mg/g powder
[1]; 8 days
  Stability of Plant-Derived Cannabinoid Compounds in Powder Concentrate: 0.685 mg/g powder
[1]; 9 days
  Stability of Plant-Derived Cannabinoid Compounds in Powder Concentrate: 0.693 mg/g powder
[1]; 10 days
  Stability of Plant-Derived Cannabinoid Compounds in Powder Concentrate: 0.706 mg/g powder
[1]; 11 days
  Stability of Plant-Derived Cannabinoid Compounds in Powder Concentrate: 0.708 mg/g powder
[1]; 12 days
  Stability of Plant-Derived Cannabinoid Compounds in Powder Concentrate: 0.698 mg/g powder
[1]; 15 days
  Stability of Plant-Derived Cannabinoid Compounds in Powder Concentrate: 0.684 mg/g powder
[1]; 16 days
  Stability of Plant-Derived Cannabinoid Compounds in Powder Concentrate: 0.658 mg/g powder
[1]; 17 days
  Stability of Plant-Derived Cannabinoid Compounds in Powder Concentrate: 0.681 mg/g powder
[1]; 18 days
  Stability of Plant-Derived Cannabinoid Compounds in Powder Concentrate: 0.690 mg/g powder
[1]; 19 days
  Stability of Plant-Derived Cannabinoid Compounds in Powder Concentrate: 0.705 mg/g powder
[1]; 22 days
  Stability of Plant-Derived Cannabinoid Compounds in Powder Concentrate: 0.703 mg/g powder
[1]; 23 days
  Stability of Plant-Derived Cannabinoid Compounds in Powder Concentrate: 0.687 mg/g powder
[1]; 24 days
  Stability of Plant-Derived Cannabinoid Compounds in Powder Concentrate: 0.668 mg/g powder
[1]; 25 days
  Stability of Plant-Derived Cannabinoid Compounds in Powder Concentrate: 0.689 mg/g powder
[1]; 26 days
  Stability of Plant-Derived Cannabinoid Compounds in Powder Concentrate: 0.686 mg/g powder
[1]; 29 days
  Stability of Plant-Derived Cannabinoid Compounds in Powder Concentrate: 0.706 mg/g powder
[1]; 30 days
  Stability of Plant-Derived Cannabinoid Compounds in Powder Concentrate: 0.659 mg/g powder
[1]; 60 days
  Stability of Plant-Derived Cannabinoid Compounds in Powder Concentrate: 0.702 mg/g powder
[1]; 90 days
  Stability of Plant-Derived Cannabinoid Compounds in Powder Concentrate: 0.707 mg/g powder
[1]; 120 days
  Stability of Plant-Derived Cannabinoid Compounds in Powder Concentrate: 0.658 mg/g powder
[1]; 150 days
  Stability of Plant-Derived Cannabinoid Compounds in Powder Concentrate: 0.695 mg/g powder
[1]; 180 days
  Stability of Plant-Derived Cannabinoid Compounds in Powder Concentrate: 0.685 mg/g powder
[1]; 210 days
  Stability of Plant-Derived Cannabinoid Compounds in Powder Concentrate: 0.662 mg/g powder
[1]; 240 days
  Stability of Plant-Derived Cannabinoid Compounds in Powder Concentrate: 0.700 mg/g powder
[1]; 270 days
  Stability of Plant-Derived Cannabinoid Compounds in Powder Concentrate: 0.670 mg/g powder
[1]; 300 days
  Stability of Plant-Derived Cannabinoid Compounds in Powder Concentrate: 0.685 mg/g powder
[1]; 330 days
  Stability of Plant-Derived Cannabinoid Compounds in Powder Concentrate: 0.691 mg/g powder
[1]; 360 days
  Stability of Plant-Derived Cannabinoid Compounds in Powder Concentrate: 0.668 mg/g powder
[1]; 390 days
  Stability of Plant-Derived Cannabinoid Compounds in Powder Concentrate: 0.680 mg/g powder
[1]; 420 days
  Stability of Plant-Derived Cannabinoid Compounds in Powder Concentrate: 0.671 mg/g powder
[1]; 450 days
  Stability of Plant-Derived Cannabinoid Compounds in Powder Concentrate: 0.680 mg/g powder
[1]; 480 days
  Stability of Plant-Derived Cannabinoid Compounds in Powder Concentrate: 0.695 mg/g powder
[1]; 510 days
  Stability of Plant-Derived Cannabinoid Compounds in Powder Concentrate: 0.696 mg/g powder
[1]; 540 days
  Stability of Plant-Derived Cannabinoid Compounds in Powder Concentrate: 0.664 mg/g powder
[1]; 570 days
  Stability of Plant-Derived Cannabinoid Compounds in Powder Concentrate: 0.686 mg/g powder
[2]; 0 days
  Stability of Plant-Derived Cannabinoid Compounds in AB White, 8° C.: 3.6 µg/mL
[2]; 1 days
  Stability of Plant-Derived Cannabinoid Compounds in AB White, 8° C.: 3.54 µg/mL
[2]; 2 days
  Stability of Plant-Derived Cannabinoid Compounds in AB White, 8° C.: 3.60 µg/mL
[2]; 3 days
  Stability of Plant-Derived Cannabinoid Compounds in AB White, 8° C.: 3.55 µg/mL
[2]; 5 days
  Stability of Plant-Derived Cannabinoid Compounds in AB White, 8° C.: 3.58 µg/mL
[2]; 8 days
  Stability of Plant-Derived Cannabinoid Compounds in AB White, 8° C.: 3.60 µg/mL
[2]; 9 days
  Stability of Plant-Derived Cannabinoid Compounds in AB White, 8° C.: 3.61 µg/mL
[2]; 10 days
  Stability of Plant-Derived Cannabinoid Compounds in AB White, 8° C.: 3.58 µg/mL
[2]; 11 days
  Stability of Plant-Derived Cannabinoid Compounds in AB White, 8° C.: 3.59 µg/mL
[2]; 12 days
  Stability of Plant-Derived Cannabinoid Compounds in AB White, 8° C.: 3.50 µg/mL
[2]; 15 days
  Stability of Plant-Derived Cannabinoid Compounds in AB White, 8° C.: 3.56 µg/mL
[2]; 16 days
  Stability of Plant-Derived Cannabinoid Compounds in AB White, 8° C.: 3.57 µg/mL
[2]; 17 days
  Stability of Plant-Derived Cannabinoid Compounds in AB White, 8° C.: 3.61 µg/mL
[2]; 18 days
  Stability of Plant-Derived Cannabinoid Compounds in AB White, 8° C.: 3.59 µg/mL
[2]; 19 days
  Stability of Plant-Derived Cannabinoid Compounds in AB White, 8° C.: 3.51 µg/mL
[2]; 22 days
  Stability of Plant-Derived Cannabinoid Compounds in AB White, 8° C.: 3.60 µg/mL
[2]; 23 days
  Stability of Plant-Derived Cannabinoid Compounds in AB White, 8° C.: 3.55 µg/mL
[2]; 24 days
  Stability of Plant-Derived Cannabinoid Compounds in AB White, 8° C.: 3.56 µg/mL
[2]; 25 days
  Stability of Plant-Derived Cannabinoid Compounds in AB White, 8° C.: 3.56 µg/mL
[2]; 26 days
  Stability of Plant-Derived Cannabinoid Compounds in AB White, 8° C.: 3.63 µg/mL
